Measurements: patent US20250332173A1, “COMPOUNDS AND METHODS FOR MODULATING NUCLEIC ACID SPLICING” (REMIX THERAPEUTICS INC., priority 2021, published 2025)
Read-outs that look alike come from different tables or passages of the source.

Legend:
Type in all cases: cell-based, human
HTT mRNA = assay: RT-qPCR splicing assay, HTT canonical junction (CJ) and alternative junction (AJ) mRNA; conditions: Homo sapiens; for AC50: increase in HTT alternative junction (AJ) mRNA, read-out: HTT AJ AC50
Procedure, shortened: (§1)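 A673 or K562 cells were treated for 24 h at 37 °C with an 11-point 3-fold compound dilution series (top final concentration 10 uM, DMSO ≤0.25%). After lysis, one-step TaqMan RT-qPCR quantified junction transcripts, normalized to PPIA for A673 or to GAPDH/GUSB for K562.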

MYB mRNA = assay: RT-qPCR splicing assay, MYB canonical junction (CJ) and alternative junction (AJ) mRNA; conditions: Homo sapiens; for AC50: increase in MYB alternative junction (AJ) mRNA, read-out: MYB AJ AC50
Procedure, shortened: as §1

MYB = assay: HiBiT protein abundance assay, MYB HiBiT K562 cell line; conditions: 24 hours, top dose 10 μM
Procedure, shortened: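 Endogenous targets in K562 knock-in lines carried a HiBiT tag and were treated for 24 h at 37 °C with 10-point 3-fold dilutions (top 10 μM final, DMSO ≤0.25%). Abundance was read as lytic Nano-Glo HiBiT luminescence. IC50 came from a four-parameter logistic fit of normalized response.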

[1] = decrease in HTT canonical junction (CJ) mRNA, RT-qPCR, read-out: HTT CJ IC50
[2] = canonical junction qPCR panel, Table 5, read-out: HTT (decrease in CJ mRNA levels, IC50)
[3] = canonical junction qPCR panel, Table 5, read-out: MYB (decrease in CJ mRNA levels, IC50)
[4] = decrease in MYB canonical junction (CJ) mRNA, RT-qPCR, read-out: MYB CJ IC50
[5] = HiBiT K562 cell line, read-out: Effect on protein abundance, MYB (IC50 category)
[6] = HiBiT lytic detection, modified K562 cells, read-out: Effect on protein abundance, MYB (IC50)
[7] = Table 5 panel, canonical junction qPCR, compound concentration having 50% response in CJ decrease, read-out: HTT IC50 (decrease in CJ mRNA levels)
[8] = Table 5 panel, canonical junction qPCR, compound concentration having 50% response in CJ decrease, read-out: MYB IC50 (decrease in CJ mRNA levels)

Cc1cn2nc(-c3ccc4c(=O)n(C5CCN(CCO)C6(CC6)C5)ncc4n3)cc(C)c2n1 (centres unmarked) [Compound 1541, 2-(2,8-dimethylimidazo[1,2-b]pyridazin-6-yl)-6-[4-(2-hydroxyethyl)-4-azaspiro[2.5]octan-7-yl]pyrido-[2,3-d]pyridazin-5-one]
< 100 nM: AC50 (HTT mRNA; RT-qPCR) | IC50 (HTT mRNA; [2])
100 to 1000 nM: IC50 (HTT mRNA; [1]) | IC50 (MYB mRNA; [3]) | IC50 (MYB mRNA; [4]) | AC50 (MYB mRNA; RT-qPCR) | IC50 (MYB; [5])

Cc1cc(-c2ccc3ncn(C4CCN(C)CC4)c(=O)c3c2)cc2cn(C)nc12 [Compound 2170]
> 10000 nM: IC50 (HTT mRNA; [1]) | AC50 (HTT mRNA; RT-qPCR) | IC50 (HTT mRNA; [2]) | IC50 (MYB mRNA; [3]) | IC50 (MYB mRNA; [4]) | AC50 (MYB mRNA; RT-qPCR) | IC50 (MYB; [6])

Cc1cn2nc(-c3ccc4c(=O)n(C5CCN(CCF)C6(CC6)C5)ncc4n3)cc(C)c2n1 (centres unmarked) [Compound 1542, 2-(2,8-dimethylimidazo[1,2-b]pyridazin-6-yl)-6-[4-(2-fluoroethyl)-4-azaspiro[2.5]octan-7-1]pyrido[2,3-d]pyridazin-5-one]
1000 to 10000 nM: IC50 (MYB mRNA; [3]) | IC50 (MYB mRNA; [4]) | AC50 (MYB mRNA; RT-qPCR) | IC50 (MYB; [6])
100 to 1000 nM: IC50 (HTT mRNA; [1]) | AC50 (HTT mRNA; RT-qPCR) | IC50 (HTT mRNA; [2])

CN1CCC(n2cnc3cc(-c4cc(F)c5nn(C)cc5c4)ccc3c2=O)CC1 [Compound 209]
1000 to 10000 nM: AC50 (HTT mRNA; RT-qPCR) | IC50 (HTT mRNA; [7])
100 to 1000 nM: IC50 (HTT mRNA; [1]) | IC50 (MYB mRNA; [8]) | IC50 (MYB mRNA; [4]) | AC50 (MYB mRNA; RT-qPCR)
> 10000 nM: IC50 (MYB; [5])

Cc1cn2cc(-c3ncc4c(=O)n([C@H]5CCNC6(CC6)C5)ccc4n3)cc(F)c2n1 [Compound 1458, 6-[(7S)-4-azaspiro[2.5]octan-7-yl]-2-(8-fluoro-2-methyl-imidazo[1,2-a]pyridin-6-yl)pyrido[4,3-d]pyrimidin-5-one]
< 100 nM: IC50 (MYB mRNA; [3]) | AC50 (MYB mRNA; RT-qPCR) | IC50 (MYB; [5])
100 to 1000 nM: IC50 (HTT mRNA; [1]) | AC50 (HTT mRNA; RT-qPCR) | IC50 (HTT mRNA; [2]) | IC50 (MYB mRNA; [4])

Cc1cn2cc(-c3ccc4c(=O)n(C5CCNCC5)cnc4c3)cc(F)c2n1 [Compound 205]
100 to 1000 nM: IC50 (HTT mRNA; [1]) | AC50 (HTT mRNA; RT-qPCR) | IC50 (HTT mRNA; [7]) | IC50 (MYB mRNA; [8]) | IC50 (MYB mRNA; [4]) | AC50 (MYB mRNA; RT-qPCR) | IC50 (MYB; [5])

Cc1c(O)c(-c2nc(C)c3c(=O)n([C@@H]4CCNC5(CC5)C4)ccc3n2)cc2cn(C)nc12 [Compound 1515, (R)-2-(6-hydroxy-2,7-dimethyl-2H-indazol-5-yl)-4-methyl-6-(4-azaspiro[2.5]octan-7-yl)pyrido[4,3-d]pyrimidin-5(6H)-one]
100 to 1000 nM: AC50 (HTT mRNA; RT-qPCR) | IC50 (HTT mRNA; [2]) | IC50 (MYB mRNA; [4])
< 100 nM: IC50 (MYB mRNA; [3]) | AC50 (MYB mRNA; RT-qPCR) | IC50 (MYB; [6])
1000 to 10000 nM: IC50 (HTT mRNA; [1])

Cc1cn2nc(-c3ccc4c(=O)n(C5C[C@@H](C)N[C@H](C)C5)ncc4n3)cc(C)c2n1 (stereo in doubt) [Compound 1537, 2-(2,8-dimethylimidazo[1,2-b]pyridazin-6-yl)-6-[(2R,6R)-2,6-dimethyl-4-piperidyl]pyrido[2,3-d]pyridazin-5-one]
100 to 1000 nM: IC50 (HTT mRNA; [1]) | AC50 (HTT mRNA; RT-qPCR) | IC50 (HTT mRNA; [2]) | IC50 (MYB mRNA; [3]) | IC50 (MYB mRNA; [4]) | AC50 (MYB mRNA; RT-qPCR) | IC50 (MYB; [5])

Cn1cc2cc(-c3ccc4c(c3)CCN(C3CCNCC3)C4=O)cc(F)c2n1 [Compound 225]
1000 to 10000 nM: IC50 (MYB; [5])
> 10000 nM: IC50 (HTT mRNA; [1]) | AC50 (HTT mRNA; RT-qPCR) | IC50 (HTT mRNA; [7]) | IC50 (MYB mRNA; [8]) | IC50 (MYB mRNA; [4]) | AC50 (MYB mRNA; RT-qPCR)

Cc1cn2nc(-c3ccc4c(=O)n([C@@H]5CCN(C)C6(CC6)C5)ncc4n3)cc(C)c2n1 [Compound 1534]
< 100 nM: IC50 (HTT mRNA; [1]) | AC50 (HTT mRNA; RT-qPCR) | IC50 (HTT mRNA; [2]) | IC50 (MYB mRNA; [4])
100 to 1000 nM: IC50 (MYB mRNA; [3]) | AC50 (MYB mRNA; RT-qPCR) | IC50 (MYB; [6])

Cc1cc(-c2cc(F)c3c(=O)n(C4CCNCC4)cnc3c2)cc2cn(C)nc12 [Compound 232]
< 100 nM: IC50 (HTT mRNA; [1]) | AC50 (HTT mRNA; RT-qPCR) | IC50 (HTT mRNA; [7]) | IC50 (MYB mRNA; [8]) | IC50 (MYB mRNA; [4]) | AC50 (MYB mRNA; RT-qPCR) | IC50 (MYB; [5])
